Source: patent publication US9556165B2 (priority 2012, dated 2017)
Values after ≈ are worked out from the molar mass of the structure shown. Where two headings read alike, the source gives them in different places.

Legend:
Type in all cases: cell-based
S. aureus 133 = experiment: MIC determination, broth microdilution (CLSI)
C. perfringens DSM756 = experiment: microbe, parasite or virus in culture; conditions: Clostridium perfringens, DSM756, read-out: MIC strain 16 (C. perfringens DSM756), strain 16; broth microdilution
[1] = system: P. aeruginosa 2297-con (AmpC derepressed); experiment: MIC determination, broth microdilution (CLSI); conditions: Pseudomonas aeruginosa, read-out: strain 8 MIC, strain 8
H. influenzae ATCC 49247 = experiment: MIC determination, broth microdilution (CLSI); conditions: Haemophilus influenzae, ATCC49247, strain 12; broth microdilution; read-out: MIC strain 12 (H. influenzae ATCC 49247)
B. fragilis 6688 = experiment: MIC determination, broth microdilution (CLSI); conditions: Bacteroides fragilis, 6688, strain 15; broth microdilution; read-out: MIC strain 15 (B. fragilis 6688)
M. morganii 126/3048 = experiment: MIC determination, broth microdilution (CLSI); conditions: Morganella morganii, 126/3048, strain 5
E. coli ATCC25922 = experiment: MIC determination, broth microdilution (CLSI); conditions: Escherichia coli, ATCC25922, strain 1
E. coli J62 = experiment: MIC determination, broth microdilution (CLSI); conditions: Escherichia coli, J62, strain 17; broth microdilution; read-out: MIC strain 17 (E. coli J62)
S. pneumoniae 113 = experiment: MIC determination, broth microdilution (CLSI); conditions: Streptococcus pneumoniae, 113, strain 13; broth microdilution; read-out: MIC strain 13 (S. pneumoniae 113)
P. aeruginosa PAO1 = experiment: MIC determination, broth microdilution (CLSI); conditions: Pseudomonas aeruginosa, PAO1, strain 6
[2] = system: P. aeruginosa 2297 (AmpC wt); experiment: MIC determination, broth microdilution (CLSI); conditions: Pseudomonas aeruginosa, strain 7
A. baumannii ATCC15308 = experiment: MIC determination, broth microdilution (CLSI); conditions: Acinetobacter baumannii, ATCC15308, strain 9
C. freundii K21/3034 = experiment: MIC determination, broth microdilution (CLSI); conditions: Citrobacter freundii, K21/3034, strain 4
S. maltophilia ICB7569 = experiment: MIC determination, broth microdilution (CLSI); conditions: Stenotrophomonas maltophilia, ICB7569, strain 10
E. coli J62-TEM-3 = experiment: MIC determination, broth microdilution (CLSI); conditions: Escherichia coli, J62TEM3, read-out: MIC strain 18 (E. coli J62-TEM-3), strain 18; broth microdilution
Bacteria = experiment: MIC determination in combination with β-lactamase inhibitors (constant 4 μg/mL)
E. cloacae 34654 = experiment: MIC determination, broth microdilution (CLSI); conditions: Enterobacter cloacae, 34654, strain 3
K. pneumoniae 60 = experiment: MIC determination, broth microdilution (CLSI); conditions: Klebsiella pneumoniae, 60, strain 2
[3] = Staphylococcus aureus, 133, strain 11, read-out: strain 11 MIC
[4] = Staphylococcus aureus, 133, strain 14, broth microdilution, read-out: MIC strain 14 (S. aureus 133)

| SMILES | MIC (S. aureus 133; [3]) [µg/mL] | MIC (S. aureus 133; [4]) [µg/mL] | MIC (C. perfringens DSM756) [µg/mL] | MIC [1] [µg/mL] | MIC (H. influenzae ATCC 49247) [µg/mL] | MIC (B. fragilis 6688) [µg/mL] | MIC (M. morganii 126/3048) [µg/mL] | MIC (E. coli ATCC25922) [µg/mL] | MIC (E. coli J62) [µg/mL] | MIC (S. pneumoniae 113) [µg/mL] | MIC (P. aeruginosa PAO1) [µg/mL] | MIC [2] [µg/mL] | MIC (A. baumannii ATCC15308) [µg/mL] | MIC (C. freundii K21/3034) [µg/mL] | MIC (S. maltophilia ICB7569) [µg/mL] | MIC (E. coli J62-TEM-3) [µg/mL] | MIC strain 19 (E. coli J62-TEM-3 + 4 μg/mL clavulanic acid) (Bacteria) | MIC strain 20 (E. coli J62-TEM-3 + 4 μg/mL sulbactam) (Bacteria) [µg/mL] | MIC strain 21 (E. coli J62-TEM-3 + 4 μg/mL tazobactam) (Bacteria) [µg/mL] | MIC (E. cloacae 34654) [µg/mL] | other results |
| --- | --- | --- | --- | --- | --- | --- | --- | --- | --- | --- | --- | --- | --- | --- | --- | --- | --- | --- | --- | --- | --- |
| CC1(C)[C@H](NC(=O)/C(=N\OCCOc2ccc(C(=N)NCCNC(=N)N)cc2)c2csc(N)n2)C(=O)N1OS(=O)(=O)O [Example 78, (2Z)-2-(2-Amino-1,3-thiazol-4-yl)-2-[(2-{4-[N-(2-carbamimidamidoethyl)carbamimidoyl]phenoxy}ethoxy)imino]-N-[(3S)-2,2-dimethyl-4-oxo-1-(sulfooxy)azetidin-3-yl]ethanamide] | ≤ 0.063 | 1 (≈ 1.6 µM) | 2 (≈ 3.19 µM) | 2 (≈ 3.19 µM) | ≤ 0.063 | 4 (≈ 6.38 µM) | 0.5 (≈ 0.798 µM) | 0.25 (≈ 0.399 µM) | 0.5 (≈ 0.798 µM) | ≤ 0.063 | 4 (≈ 6.38 µM) | 4 (≈ 6.38 µM) | 0.25 (≈ 0.399 µM) | 0.25 (≈ 0.399 µM) | 8 (≈ 12.8 µM) | 4 (≈ 6.38 µM) | 0.25 µg/mL | 0.5 | 0.5 | 0.5 (≈ 0.798 µM) | MIC (K. pneumoniae 60): 0.25 µg/mL (≈ 0.399 µM) |
| CC1(C)[C@H](NC(=O)/C(=N\OCCOc2ccc(C(=N)NCCN)nc2)c2csc(N)n2)C(=O)N1OS(=O)(=O)O [Example 82, (2Z)-2-{[2-({6-[N-(2-Aminoethyl)carbamimidoyl]pyridin-3-yl}oxy)ethoxy]imino}-2-(2-amino-1,3-thiazol-4-yl)-N-[(3S)-2,2-dimethyl-4-oxo-1-(sulfooxy)azetidin-3-yl]ethanamide] | ≤ 0.063 | 8 (≈ 13.7 µM) | 4 (≈ 6.83 µM) | 8 (≈ 13.7 µM) | ≤ 0.063 | 4 (≈ 6.83 µM) | 0.5 (≈ 0.854 µM) | 0.25 (≈ 0.427 µM) | 0.25 (≈ 0.427 µM) | ≤ 0.063 | 8 (≈ 13.7 µM) | 16 (≈ 27.3 µM) | 4 (≈ 6.83 µM) | 0.25 (≈ 0.427 µM) | 32 (≈ 54.6 µM) | 8 (≈ 13.7 µM) | 0.25 µg/mL | 0.25 | 0.5 | 0.5 (≈ 0.854 µM) | MIC (K. pneumoniae 60): 0.125 µg/mL (≈ 0.213 µM) |
| CC1(C)[C@H](NC(=O)/C(=N\OCCOc2ccc(C(=N)NCCCN)cc2)c2csc(N)n2)C(=O)N1OS(=O)(=O)O [Example 83, (2Z)-2-[(2-{4-[N-(3-Aminopropyl)carbamimidoyl]phenoxy}ethoxy)imino]-2-(2-amino-1,3-thiazol-4-yl)-N-[(3S)-2,2-dimethyl-4-oxo-1-(sulfooxy)azetidin-3-yl]ethanamide] | ≤ 0.063 | 2 (≈ 3.34 µM) | 2 (≈ 3.34 µM) | 4 (≈ 6.68 µM) | ≤ 0.063 | 4 (≈ 6.68 µM) | 0.5 (≈ 0.835 µM) | 0.125 (≈ 0.209 µM) | 0.25 (≈ 0.418 µM) | ≤ 0.063 | 2 (≈ 3.34 µM) | 4 (≈ 6.68 µM) | 0.25 (≈ 0.418 µM) | 0.125 (≈ 0.209 µM) | 16 (≈ 26.7 µM) | 4 (≈ 6.68 µM) | 0.125 µg/mL | 0.25 | 0.25 | 0.25 (≈ 0.418 µM) | MIC (K. pneumoniae 60): 0.25 µg/mL (≈ 0.418 µM) |
| CC1(C)[C@H](NC(=O)/C(=N\OCCOc2ccc(C(=N)NC(CN)CN)cc2)c2csc(N)n2)C(=O)N1OS(=O)(=O)O [Example 84, (2Z)-2-(2-Amino-1,3-thiazol-4-yl)-2-[(2-{4-[N-(1,3-diaminopropan-2-yl)carbamimidoyl]phenoxy}ethoxy)imino]-N-[(3S)-2,2-dimethyl-4-oxo-1-(sulfooxy)azetidin-3-yl]ethanamide] | ≤ 0.063 | 2 (≈ 3.26 µM) | 2 (≈ 3.26 µM) | 2 (≈ 3.26 µM) | ≤ 0.063 | 4 (≈ 6.52 µM) | 0.25 (≈ 0.407 µM) | ≤ 0.063 | 0.125 (≈ 0.204 µM) | ≤ 0.063 | 1 (≈ 1.63 µM) | 2 (≈ 3.26 µM) | 1 (≈ 1.63 µM) | ≤ 0.063 | 32 (≈ 52.1 µM) | 4 (≈ 6.52 µM) | ≦0.063 mg/L | 0.125 | 0.125 | 0.125 (≈ 0.204 µM) | MIC (K. pneumoniae 60): 0.125 µg/mL (≈ 0.204 µM) |
